Key:
Type in all cases: functional
[1] = target: T1, Cdk-related protein kinase 6 (Plasmodium falciparum, UniProt O77239); experiment: Final concentrations were 1.5 uM ATP, 5 mM MnCl2, and 15 ug/ml PK6 in a buffer of 100 mM Tris-HCl (pH 7.5). 50 ug/mL MBP was provided as the substrate; 10 uM staurosporine was used as a control inhibitor. Incubation time was 3 hours and 40 minutes.The catalytic activity of each kinase was considered proportional to ATP consumed, as determined from measurements of residual [ATP] with the luciferase-based reagent Kinase-Glo (Promega) following incubation. Luminescence (proportional to residual [ATP]) was measured on the plate readers FLx800 (BioTek Instruments, Winooski, VT, USA) and MicroBeta2.
T1 sequence (O77239 whole entry): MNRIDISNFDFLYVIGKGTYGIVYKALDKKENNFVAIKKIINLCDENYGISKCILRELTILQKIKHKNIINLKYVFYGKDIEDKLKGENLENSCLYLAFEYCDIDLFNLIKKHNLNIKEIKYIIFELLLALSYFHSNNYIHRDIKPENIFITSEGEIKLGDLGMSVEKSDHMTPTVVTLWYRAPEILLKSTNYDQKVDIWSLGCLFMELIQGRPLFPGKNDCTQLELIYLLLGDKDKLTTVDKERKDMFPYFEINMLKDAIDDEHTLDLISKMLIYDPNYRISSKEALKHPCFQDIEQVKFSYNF

[2] = target: T2, Putative uncharacterized protein pk7 (Plasmodium falciparum, UniProt O96214); experiment: Final concentrations were 1 uM ATP, 2 mM DTT, 20 mM MgCl2, 2 mM MnCl2, 0.01% BSA, and 6 ug/ml PK7, in a buffer of 20 mM Tris-HCl (pH 7.5). The enzyme itself was the only substrate present (since autophosphorylation occurs); 100 uM 1NA-PP1 was used as a control inhibitor. Incubation time was 3 hours.
T2 sequence (O96214 whole entry): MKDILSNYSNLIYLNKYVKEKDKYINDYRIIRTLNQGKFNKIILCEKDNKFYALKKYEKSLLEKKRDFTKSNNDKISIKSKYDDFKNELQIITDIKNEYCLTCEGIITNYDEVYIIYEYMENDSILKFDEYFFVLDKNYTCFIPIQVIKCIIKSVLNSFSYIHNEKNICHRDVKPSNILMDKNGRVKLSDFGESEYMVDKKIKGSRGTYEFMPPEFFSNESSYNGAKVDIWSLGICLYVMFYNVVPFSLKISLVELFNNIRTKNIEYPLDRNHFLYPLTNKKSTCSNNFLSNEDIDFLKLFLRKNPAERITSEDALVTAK

[3] = target: T3, Mitogen-activated protein kinase (Plasmodium falciparum, UniProt Q25917); experiment: Final concentrations were 1 uM ATP, 0.5 mM DTT, 1 mM MgCl2, 0.5 mg/mL BSA, and 10 ug/ml MAP2 in a buffer of 50 mM HEPES (pH 7.0). 0.5 mg/mL histone III-S served as the substrate (13); 100 uM AMP-PNP, an ATP analog, was used as a control inhibitor. Incubation time was 4 hours.
T3 sequence (Q25917 whole entry): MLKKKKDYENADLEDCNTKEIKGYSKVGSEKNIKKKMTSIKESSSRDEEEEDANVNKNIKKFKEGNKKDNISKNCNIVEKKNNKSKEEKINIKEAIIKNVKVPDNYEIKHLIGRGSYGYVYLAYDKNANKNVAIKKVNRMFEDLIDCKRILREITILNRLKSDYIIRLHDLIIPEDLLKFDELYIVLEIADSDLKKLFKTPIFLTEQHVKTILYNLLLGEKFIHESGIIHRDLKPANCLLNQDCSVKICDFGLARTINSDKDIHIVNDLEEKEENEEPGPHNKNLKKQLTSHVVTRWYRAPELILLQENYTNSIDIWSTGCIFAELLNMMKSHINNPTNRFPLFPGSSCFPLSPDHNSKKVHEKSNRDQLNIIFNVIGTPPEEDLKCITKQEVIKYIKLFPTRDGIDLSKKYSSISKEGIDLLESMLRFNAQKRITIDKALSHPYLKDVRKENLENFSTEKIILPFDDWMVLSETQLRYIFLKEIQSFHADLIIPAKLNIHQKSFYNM

[4] = target: Calcium-dependent protein kinase 1 (Plasmodium falciparum, UniProt P62344); experiment: MMV: CDPK1 Protein kinase inhibition assay using recombinant PfCDPK1, syntide 2 peptide substrate, ATP and KinaseGlo to measure % inhibition at 1 uM MMV box compound.
Sequence of Calcium-dependent protein kinase 1 (P62344 whole entry): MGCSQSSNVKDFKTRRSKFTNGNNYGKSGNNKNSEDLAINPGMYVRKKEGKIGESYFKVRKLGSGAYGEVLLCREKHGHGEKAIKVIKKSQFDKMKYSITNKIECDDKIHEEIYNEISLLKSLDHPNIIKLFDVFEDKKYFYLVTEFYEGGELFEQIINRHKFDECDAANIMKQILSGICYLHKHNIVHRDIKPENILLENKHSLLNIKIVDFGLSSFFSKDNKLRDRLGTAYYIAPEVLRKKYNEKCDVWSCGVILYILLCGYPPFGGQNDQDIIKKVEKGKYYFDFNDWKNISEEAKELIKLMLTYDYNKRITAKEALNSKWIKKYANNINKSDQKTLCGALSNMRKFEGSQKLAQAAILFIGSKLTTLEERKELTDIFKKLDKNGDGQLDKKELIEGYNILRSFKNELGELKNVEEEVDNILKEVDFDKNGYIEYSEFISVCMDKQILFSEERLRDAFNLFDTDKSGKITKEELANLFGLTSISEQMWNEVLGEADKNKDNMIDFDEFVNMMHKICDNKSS

[5] = target: T4, Calcium-dependent protein kinase 4 (Plasmodium falciparum (isolate 3D7), UniProt Q8IBS5); experiment: MMV: CDPK4 Protein kinase inhibition assay using recombinant PfCDPK4, syntide2 peptide substrate, ATP and KinaseGlo to measure % inhibition at 1 uM MMV box compound.
T4 sequence (Q8IBS5 whole entry): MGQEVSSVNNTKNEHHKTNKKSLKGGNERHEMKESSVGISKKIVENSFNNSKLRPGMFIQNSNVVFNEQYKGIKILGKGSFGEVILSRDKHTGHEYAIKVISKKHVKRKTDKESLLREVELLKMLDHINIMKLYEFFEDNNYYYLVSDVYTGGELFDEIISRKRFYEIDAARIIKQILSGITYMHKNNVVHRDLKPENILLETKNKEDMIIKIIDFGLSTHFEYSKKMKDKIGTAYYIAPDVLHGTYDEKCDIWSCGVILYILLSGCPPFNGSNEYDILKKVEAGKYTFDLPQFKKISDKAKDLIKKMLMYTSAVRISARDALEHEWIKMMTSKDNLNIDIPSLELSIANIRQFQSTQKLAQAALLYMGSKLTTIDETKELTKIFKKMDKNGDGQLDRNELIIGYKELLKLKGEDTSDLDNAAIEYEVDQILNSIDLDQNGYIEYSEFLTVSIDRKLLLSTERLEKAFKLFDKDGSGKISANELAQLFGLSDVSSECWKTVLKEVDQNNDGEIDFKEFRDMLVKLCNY

Proline--tRNA ligase = target: T5, Proline--tRNA ligase (Plasmodium falciparum (isolate 3D7), UniProt Q8I5R7); experiment: MMV: ProRS recombinant Plasmodium falciparum Prolyl-tRNA-synthetase, assay with yeast tRNA, ATP, and proline and 3 uM MMV malaria box compound, assay read out with kinase glo as % inhibition.
T5 sequence (Q8I5R7 whole entry): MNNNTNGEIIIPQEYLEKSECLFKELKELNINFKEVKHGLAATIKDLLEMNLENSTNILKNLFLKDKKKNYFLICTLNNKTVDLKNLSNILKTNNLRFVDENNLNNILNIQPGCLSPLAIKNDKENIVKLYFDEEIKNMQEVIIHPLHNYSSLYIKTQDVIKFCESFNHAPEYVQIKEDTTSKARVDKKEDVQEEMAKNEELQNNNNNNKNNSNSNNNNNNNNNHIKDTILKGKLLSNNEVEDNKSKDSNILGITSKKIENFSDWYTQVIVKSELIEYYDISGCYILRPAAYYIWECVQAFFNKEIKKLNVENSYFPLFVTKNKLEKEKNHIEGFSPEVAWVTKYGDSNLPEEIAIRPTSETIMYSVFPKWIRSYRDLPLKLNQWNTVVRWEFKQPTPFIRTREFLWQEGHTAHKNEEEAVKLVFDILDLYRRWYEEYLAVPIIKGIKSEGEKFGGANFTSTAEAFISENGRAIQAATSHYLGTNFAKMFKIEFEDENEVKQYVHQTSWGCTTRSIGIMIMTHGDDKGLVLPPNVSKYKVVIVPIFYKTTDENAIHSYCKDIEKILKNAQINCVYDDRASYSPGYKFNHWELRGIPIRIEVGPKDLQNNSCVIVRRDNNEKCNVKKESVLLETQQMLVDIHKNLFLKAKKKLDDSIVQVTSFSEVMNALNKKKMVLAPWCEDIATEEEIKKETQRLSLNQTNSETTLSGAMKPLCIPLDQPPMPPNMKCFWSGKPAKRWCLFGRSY

Lysine--tRNA ligase = Lysine--tRNA ligase (Plasmodium falciparum (isolate 3D7), UniProt Q8IDJ8); experiment: MMV: KRS recombinant Plasmodium falciparum Lysyl-tRNA-synthetase, assay with yeast tRNA, ATP, and lysine and 3 uM MMV malaria box compound, assay read out with kinase glo as % inhibition.
Sequence of Lysine--tRNA ligase (Q8IDJ8 whole entry): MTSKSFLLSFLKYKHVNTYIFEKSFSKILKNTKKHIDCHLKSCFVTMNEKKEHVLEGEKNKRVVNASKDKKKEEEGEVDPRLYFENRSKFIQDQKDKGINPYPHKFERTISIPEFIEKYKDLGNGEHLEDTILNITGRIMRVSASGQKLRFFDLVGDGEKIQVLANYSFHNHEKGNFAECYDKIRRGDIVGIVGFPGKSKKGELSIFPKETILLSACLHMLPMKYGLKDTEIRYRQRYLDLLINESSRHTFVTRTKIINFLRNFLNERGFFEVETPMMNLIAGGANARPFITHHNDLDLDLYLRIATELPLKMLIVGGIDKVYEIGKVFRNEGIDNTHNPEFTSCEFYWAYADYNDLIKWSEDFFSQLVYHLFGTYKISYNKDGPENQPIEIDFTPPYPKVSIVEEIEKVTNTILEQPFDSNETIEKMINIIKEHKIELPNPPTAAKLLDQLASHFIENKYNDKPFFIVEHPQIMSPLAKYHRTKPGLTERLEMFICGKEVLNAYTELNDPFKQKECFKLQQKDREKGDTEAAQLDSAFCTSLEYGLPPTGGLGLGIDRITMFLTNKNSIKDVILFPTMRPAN

Compound | IC50 [1] [nM] | IC50 [2] [nM] | IC50 [3] [nM] | IC50 [4] [nM] | IC50 [5] [nM] | IC50 (Proline--tRNA ligase) [nM] | IC50 (Lysine--tRNA ligase) [nM]
CN(C)CCCNc1c2ccccc2nc2ccccc12 | > 1000 | > 1000 | > 1000 | > 1000 | > 1000 | > 2500 | > 2500
COc1ccc(-c2c(C)nn3c(N)c(C#N)cnc23)cc1OC | > 1000 | > 1000 | > 1000 | > 1000 | > 1000 | > 2500 | > 2500
CSC1=NC(=Nc2c(C)cccc2C)C2(CCC(C(C)(C)C)CC2)N1c1ccc(Cl)cc1 (configuration not stated) | > 1000 | > 1000 | > 1000 | > 1000 | > 1000 | > 2500 | > 2500
COc1ccc(-c2cc3c(SCC(=O)Nc4cc(C(F)(F)F)ccc4Cl)nccn3n2)cc1 | > 1000 | > 1000 | > 1000 | > 1000 | > 1000 | > 2500 | > 2500
COc1ccc(-c2nc(NC(=O)CS(=O)(=O)c3ccc(F)cc3)sc2C)cc1 | > 1000 | > 1000 | > 1000 | > 1000 | > 1000 | > 2500 | > 2500
O=C(O)C1Cc2c([nH]c3ccccc23)C(c2ccc(Cl)cc2Cl)N1 (configuration not stated) | > 1000 | > 1000 | > 1000 | > 1000 | > 1000 | > 2500 | > 2500
COc1cccc(NC(=O)[C@H](C(C)C)n2c(=O)[nH]c3ccccc3c2=O)c1 | > 1000 | > 1000 | > 1000 | > 1000 | > 1000 | > 2500 | > 2500
CCOC(=O)c1cn(CC)c2cc(N(C)CCc3ccc(OC)c(OC)c3)c(F)cc2c1=O | > 1000 | > 1000 | > 1000 | > 1000 | > 1000 | > 2500 | > 2500
O=[N+]([O-])c1ccc(C=NNc2nc3ccccc3[nH]2)cc1 | > 1000 | > 1000 | > 1000 | > 1000 | > 1000 | > 2500 | > 2500
COc1ccc(C2=C(c3ccc(OC)cc3)C3(c4ccccc4)C(=O)C2(c2ccccc2)C2C(=O)N(c4ccc(C)cc4)C(=O)C23)cc1 (configuration not stated) | > 1000 | > 1000 | > 1000 | > 1000 | > 1000 | > 2500 | > 2500
COc1ccccc1CNC(=O)CCn1c(=O)[nH]c2ccccc2c1=O | > 1000 | > 1000 | > 1000 | > 1000 | > 1000 | > 2500 | > 2500
Oc1ccccc1CNCC12CC3CC(CC(C3)C1)C2 | > 1000 | > 1000 | > 1000 | > 1000 | > 1000 | > 2500 | > 2500
CNCCCNc1ccnc2cc(Cl)ccc12 | > 1000 | > 1000 | > 1000 | > 1000 | > 1000 | > 2500 | > 2500
CC1CCN(Cc2ccc(NC(=O)c3cc4ccc5cccnc5c4[nH]3)cc2)CC1 | > 1000 | > 1000 | > 1000 | > 1000 | > 1000 | > 2500 | > 2500
CSc1ccccc1C(=O)Nc1nc(-c2ccccn2)cs1 | > 1000 | > 1000 | > 1000 | > 1000 | > 1000 | > 2500 | > 2500
COc1ccc(C(C)=O)cc1N1C(=O)C2C(C1=O)C1(c3ccccc3)C(=O)C2(c2ccccc2)C(c2ccc(C)cc2)=C1c1ccc(C)cc1 (configuration not stated) | > 1000 | > 1000 | > 1000 | > 1000 | > 1000 | > 2500 | > 2500
